Experimental data: ChEMBL document CHEMBL1133554, “Synthesis, structure-activity relationships, and pharmacological profile of 9-amino-4-oxo-1-phenyl-3,4,6,7-tetrahydro[1,4]diazepino[6, 7,1-hi]indoles: discovery of potent, selective phosphodiesterase type 4 inhibitors” (J Med Chem, 2000)

Legend:
Phosphodiesterase 3 = Phosphodiesterase 3 (Homo sapiens, UniProt Q14432+Q13370); assay: Inhibition of phosphodiesterase 3 (PDE3) isolated from the dog aorta; format: protein assay, Canis lupus familiaris; settings: target entry is the homologue from another species
[1] = molecular target: Phosphodiesterase, PDE1/PDE5 (Homo sapiens, UniProt O76074+P54750+Q01064+Q14123); assay: Inhibition of phosphodiesterase 1/5 isozyme (PDE1/5) mixture isolated from the guinea pig trachea.; set-up: species or system Cavia porcellus; settings: target entry is the homologue from another species
Phosphodiesterase 4 [2] = molecular target: T1, Phosphodiesterase 4 (Homo sapiens, UniProt P27815+Q08499+Q07343+Q08493); assay: Inhibition of phosphodiesterase type 4 isozyme (PDE4) from the U937 human cell line.; format: cell-based; settings: u-937
Rattus norvegicus = assay: In vivo inhibition of antigen induced eosinophil recruitment in Brown-Norvway Rats at 10 mg/kg peroral dose; format: functional; settings: route oral
[3] = In vitro inhibition of TNF-alpha-release from human whole blood; format: functional
[4] = In vivo inhibition of LPS-stimulated TNF-alpha release in Wistar rats at 10 mg/kg oral dose; format: functional; settings: Rattus norvegicus
Phosphodiesterase 4 [5] = molecular target: T1, Phosphodiesterase 4; assay: PDE4-related emetic activity in ferrets after intravenous administration at 40 mg/kg; format: functional, organism-based; set-up: dose 40 mg/kg; settings: Mustela putorius furo, target entry is the homologue from another species
[6] = In vitro inhibition of TNF-alpha release from human peripheral blood monocytes; format: functional
Phosphodiesterase 4 [7] = molecular target: T1, Phosphodiesterase 4; assay: PDE4-related emetic activity in ferrets after intravenous administration at 10 mg/kg; format: functional, organism-based; set-up: dose 10 mg/kg; settings: Mustela putorius furo, target entry is the homologue from another species

SMILES	IC50 (Phosphodiesterase 3) [µM]	IC50 [1] [µM]	IC50 (Phosphodiesterase 4 [2]) [µM]	inhibition in vivo at 10 mg/kg (Rattus norvegicus) [%]	ED50 (Rattus norvegicus) [mg/kg]	IC50 [3] [µM]	inhibition in vivo at 10 mg/kg [4] [%]	R+V (Phosphodiesterase 4 [5])	IC50 [6] [µM]	R+V (Phosphodiesterase 4 [7])	ED50 [4] [mg/kg]
O=C(N[C@@H]1N=C(c2ccccc2)c2cccc3c2N(CC3)C1=O)c1cc2ccccc2cn1	> 100	> 100	5.5								
Cc1cc2c3c(c1)C(c1ccccc1)=N[C@@H](NC(=O)c1cc(Cl)c(N)c(Cl)c1)C(=O)N3CC2	10.3	> 100	0.3	-21							
Nc1cc2c3c(c1)C(c1ccccc1)=N[C@@H](NC(=O)c1ccncc1)C(=O)N3CC2	> 100	> 100	0.5		1.89	1.09	-71	0 90 min	0.48		
Nc1cc2c3c(c1)C(c1ccccc1)=N[C@@H](NC(=O)c1ccncc1N)C(=O)N3CC2	> 100	> 100	0.7	-82		0.398	-89		0.08	3.5 90 min	
COc1ccc([C@]2(C#N)CC[C@@H](C(=O)O)CC2)cc1OC1CCCC1 [CILOMILAST]						7.3				59.5 90 min	3
Nc1cnccc1C(=O)N[C@@H]1N=C(c2ccccc2)c2cccc3c2N(CC3)C1=O	90	> 100	16.2								
O=C(N[C@@H]1N=C(c2ccccc2)c2cccc3c2N(CC3)C1=O)c1cccnc1	> 100	> 100	10.5								
CC(C)(C)OC(=O)Nc1cnccc1C(=O)N[C@@H]1N=C(c2ccccc2)c2cccc3c2N(CC3)C1=O	54.7	53.3	6.2								
Nc1c(Cl)cc(C(=O)N[C@@H]2N=C(c3ccccc3)c3cc(N4CCCC4)cc4c3N(CC4)C2=O)cc1Cl	10.6	39.2	0.08								
Nc1cc2c3c(c1)C(c1ccccc1)=N[C@@H](NC(=O)c1c(Cl)cncc1Cl)C(=O)N3CC2	80	> 100	0.2			0.213			0.038		
Cc1cc2nnc(C(=O)N[C@@H]3N=C(c4ccccc4)c4cc(N)cc5c4N(CC5)C3=O)c(C)n2n1	48.6	72	0.2		1.8	0.75			0.26		
Nc1cc2c3c(c1)C(c1ccccc1)=N[C@@H](NC(=O)c1cnc4ccccc4c1)C(=O)N3CC2	53.9	90.7	0.2								
COc1ccc(C2CNC(=O)C2)cc1OC1CCCC1 (stereo not given) [ROLIPRAM]	> 100				4.66	0.94	94		0.083		
CN(C)c1cc2c3c(c1)C(c1ccccc1)=N[C@@H](NC(=O)c1cc(Cl)c(N)c(Cl)c1)C(=O)N3CC2	3.2	5.3	0.2								
Cc1cc2nnc(C(=O)N[C@@H]3N=C(c4ccccc4)c4cc(N5CCCC5)cc5c4N(CC5)C3=O)c(C)n2n1	22.2	> 100	0.2								
Nc1cc2c3c(c1)C(c1ccccc1)=N[C@@H](NC(=O)c1cccnc1)C(=O)N3CC2	> 100	> 100	0.27		3.2	1.24		0 90 min	0.34		2.8
Cc1cc2c3c(c1)C(c1ccccc1)=N[C@@H](NC(=O)c1c(Cl)cncc1Cl)C(=O)N3CC2	19.5	38	1		63.7						
O=C(N[C@@H]1N=C(c2ccccc2)c2cccc3c2N(CC3)C1=O)c1c(Cl)cncc1Cl	> 100	> 100	4.7								

SMILES	IC50 (Phosphodiesterase 3) [µM]	IC50 [1] [µM]	IC50 (Phosphodiesterase 4 [2]) [µM]	inhibition in vivo at 10 mg/kg (Rattus norvegicus) [%]	ED50 (Rattus norvegicus) [mg/kg]	IC50 [3] [µM]	inhibition in vivo at 10 mg/kg [4] [%]	R+V (Phosphodiesterase 4 [5])	IC50 [6] [µM]	R+V (Phosphodiesterase 4 [7])	ED50 [4] [mg/kg]
COc1ccccc1C(=O)N[C@@H]1N=C(c2ccccc2)c2cc(C)cc3c2N(CC3)C1=O	28.8	50.6	1.3								
Cc1cc2c3c(c1)C(c1ccccc1)=N[C@@H](NC(=O)c1nnc4cc(C)nn4c1C)C(=O)N3CC2	> 100	> 100	0.7		33.9	> 30			5.35		
O=C(N[C@@H]1N=C(c2ccccc2)c2cc([N+](=O)[O-])cc3c2N(CC3)C1=O)c1cc2ccccc2cn1			> 100								
CC(C)(C)OC(=O)Nc1cnccc1C(=O)N[C@@H]1N=C(c2ccccc2)c2cc(N)cc3c2N(CC3)C1=O	58.2	67.7			5.03		-87			0 90 min	
Cc1cc2c3c(c1)C(c1ccccc1)=N[C@@H](NC(=O)c1cc4ccccc4cn1)C(=O)N3CC2	> 100	> 100									
COc1cc2c3c(c1)C(c1ccccc1)=N[C@@H](NC(=O)c1nnc4cc(C)nn4c1C)C(=O)N3CC2	46	14.1	2.7								
CC(=O)Nc1cc2c3c(c1)C(c1ccccc1)=N[C@@H](NC(=O)c1cc(Cl)c(N)c(Cl)c1)C(=O)N3CC2	4.5	3.5	0.09								
CC(=O)Nc1cc2c3c(c1)C(c1ccccc1)=N[C@@H](NC(=O)c1ccncc1)C(=O)N3CC2	70	30.1	0.7								
COc1cc2c3c(c1)C(c1ccccc1)=N[C@@H](NC(=O)c1ccncc1)C(=O)N3CC2	40.8	16.1	4.4								
Nc1ccc(C(=O)N[C@@H]2N=C(c3ccccc3)c3cc(N)cc4c3N(CC4)C2=O)cc1	86.8	93.2	0.69		10.8	1.52	-71		0.443	0 90 min	
Cc1cc2c3c(c1)C(c1ccccc1)=N[C@@H](NC(=O)c1ccncc1)C(=O)N3CC2	35.8	73.4			5.06	61	-25		0.99	0 90 min	
Nc1cc2c3c(c1)C(c1ccccc1)=N[C@@H](NC(=O)c1cc(Cl)c(N)c(Cl)c1)C(=O)N3CC2	51.6	> 100	0.04	-61.8		0.438			0.011		
COc1cc2c3c(c1)C(c1ccccc1)=N[C@@H](NC(=O)c1cnc4ccccc4c1)C(=O)N3CC2	19.4	16.1	1.7								
O=C(N[C@@H]1N=C(c2ccccc2)c2cc([N+](=O)[O-])cc3c2N(CC3)C1=O)c1cccnc1			10.8								
Nc1cc2c3c(c1)C(c1ccccc1)=N[C@@H](NC(=O)c1cc4ccccc4cn1)C(=O)N3CC2	48.5	> 100	0.1	-62.9		3.37	-16		0.048		
O=C(N[C@@H]1N=C(c2ccccc2)c2cccc3c2N(CC3)C1=O)c1ccncc1	> 100	> 100	20.5								
COc1ccccc1C(=O)N[C@@H]1N=C(c2ccccc2)c2cc(N)cc3c2N(CC3)C1=O	> 100	93.2	0.5			1.06			0.123		
O=C(N[C@@H]1N=C(c2ccccc2)c2cc(N3CCCC3)cc3c2N(CC3)C1=O)c1ccncc1	18	34	1.4								
